From patent publication US7981923B2, “Tetralin and indane derivatives and uses thereof” (Roche Palo Alto LLC, priority 2006, dated 2011)

Target: T1, recombinant human 5-HT6 receptor (Homo sapiens, UniProt P50406)
T1 construct: expressed in transfected cells; membranes
Assay: Radioligand binding, [3H]LSD competition in HEK293 cell membranes
Conditions: competition for [3H]LSD binding, membranes of HEK293 cells expressing recombinant human 5-HT6 receptor; read-out: pKi for 5-HT6 (converted)
Procedure: The binding activity of compounds of this invention in vitro was determined as follows. Duplicate determinations of 5-HT6 ligand affinity were made by competing for binding of [^3H]LSD in cell membranes derived from HEK293 cells stably expressing recombinant human 5-HT6 receptor. Duplicate determinations of 5-HT2A ligand affinity were made by competing for binding of [^3H]Ketanserin (3-(2-(4-(4-fluorobenzoyl)piperidinol)ethyl)-2,4(1H,3H)-quinazolinedione) in cell membranes derived from CHO-K1 cells stably expressing recombinant human 5-HT2A receptor. Membranes were prepared from HEK 293 cell lines by the method described by Monsma et al., Molecular Pharmacology, Vol. 43 pp. 320-327 (1993), and from CHO-K1 cell lines as described by Bonhaus et al., Br J Pharmacol. June; 115 (4):622-8 (1995).
For estimation of affinity at the 5-HT2A receptor all determinations were made in assay buffer containing 50 mM Tris-HCl, 5 mM ascorbic acid, 4 mM CaCl2, pH 7.4 at 32° C., in a 250 microliter reaction volume.
Assay tubes containing [^3H] […] LSD or [^3H]Ketanserin were determined as radioactive counts per minute using Packard TopCount.
Displacement of [^3H]LSD or [^3H]Ketanserin from the binding sites was quantified by fitting concentration-binding data to a 4-parameter logistic equation: […]

T1 sequence (P50406 whole entry): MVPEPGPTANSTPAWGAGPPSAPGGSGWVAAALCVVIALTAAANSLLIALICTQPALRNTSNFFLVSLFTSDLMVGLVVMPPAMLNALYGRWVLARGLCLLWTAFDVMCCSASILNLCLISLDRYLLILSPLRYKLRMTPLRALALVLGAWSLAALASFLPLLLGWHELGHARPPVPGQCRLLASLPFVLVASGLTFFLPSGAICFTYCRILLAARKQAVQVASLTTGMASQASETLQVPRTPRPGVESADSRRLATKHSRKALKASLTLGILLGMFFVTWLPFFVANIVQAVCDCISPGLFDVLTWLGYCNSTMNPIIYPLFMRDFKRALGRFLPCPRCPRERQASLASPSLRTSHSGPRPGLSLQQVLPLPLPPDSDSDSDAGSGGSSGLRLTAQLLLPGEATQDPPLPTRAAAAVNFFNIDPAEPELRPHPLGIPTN

NC[C@@H]1CCCc2cc(S(=O)(=O)c3cccc(F)c3)cc(F)c21 (stereo in doubt) [C-[8-Fluoro-6-(3-fluoro-benzenesulfonyl)-1,2,3,4-tetrahydro-naphthalen-1-yl]-methylamine]
Ki: ~0.1 nM
